Results published in PubChem BioAssay (NCI).
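Compound exposure: 48 hours, 5 concentrations, 96-well plates. TGI marks complete inhibition of growth.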

Assays:
Assay in all cases: DTP human tumour cell line panel, 48 h
786-0 renal = system: 786-0 renal
A549 NSCLC = system: A549 NSCLC
ACHN renal = system: ACHN renal
BT-549 breast = system: BT-549 breast
CAKI-1 renal = system: CAKI-1 renal
HCC-2998 colon = system: HCC-2998 colon
HL-60(TB) leukemia = system: HL-60(TB) leukemia
HOP-92 NSCLC = system: HOP-92 NSCLC
HS 578T breast = system: HS 578T breast
MALME-3M melanoma = system: MALME-3M melanoma
MDA-N = system: MDA-N
NCI-H226 lung = system: NCI-H226 lung
OVCAR-5 ovarian = system: OVCAR-5 ovarian
PC-3 prostate = system: PC-3 prostate
RPMI-8226 leukemia = system: RPMI-8226 leukemia
SN12C renal = system: SN12C renal
TK-10 renal = system: TK-10 renal
UACC-257 melanoma = system: UACC-257 melanoma
UACC-62 melanoma = system: UACC-62 melanoma
UO-31 renal = system: UO-31 renal

Structure (SMILES) | TGI (786-0 renal) | TGI (A549 NSCLC) | TGI (ACHN renal) | TGI (BT-549 breast) | TGI (CAKI-1 renal) | TGI (HCC-2998 colon) | TGI (HL-60(TB) leukemia) | TGI (HOP-92 NSCLC) | TGI (HS 578T breast) | TGI (MALME-3M melanoma) | TGI (MDA-N) | TGI (NCI-H226 lung) | TGI (OVCAR-5 ovarian) | TGI (PC-3 prostate) | TGI (RPMI-8226 leukemia) | TGI (SN12C renal) | TGI (TK-10 renal) | TGI (UACC-257 melanoma) | TGI (UACC-62 melanoma) | TGI (UO-31 renal)
CCCCCCCCCCCC(=O)OCC(C[As](=O)(O)O)OC(=O)CCCCCCCCCCC (centres undefined) | 26.7 µM | 25.8 µM | 5.04 µM | 23.3 µM | 21.7 µM | 14 µM | > 25 µM | 4.29 µM | 13.3 µM | 6.49 µM | 13 µM | 42.9 µM | 34.1 µM | 9.52 µM | > 62 µM | 8.27 µM | 30.6 µM | 21.9 µM | 3.95 µM | 17.4 µM
C1=Cc2cc3c(c4nccc(c24)N1)OCO3 | 21.2 µM | > 41.7 µM | > 34.4 µM | 48.8 µM | > 32.1 µM | 28.6 µM | > 100 µM | > 100 µM | 32.5 µM | 26 µM | 24.2 µM | 36.7 µM | > 69.4 µM | > 100 µM | > 65.9 µM | > 39.2 µM | > 80.1 µM | 50.7 µM | 32.2 µM | > 48.8 µM
COC(=O)c1cc2c(cc1Cl)Sc1nnc(Nc3ccc(C)cc3)n1S2(=O)=O | 24.1 µM | 35.8 µM | 8.8 µM | 30.5 µM | 22 µM | 17.5 µM | 13.8 µM | 16.5 µM | 32.7 µM | 26.3 µM | 20.6 µM | 28.2 µM | 39.8 µM | 18 µM | 5.44 µM | 36.5 µM | 27.7 µM | 25.6 µM | 26 µM | 23.6 µM
COc1cc(-c2nc3ccccn3c2/N=C/c2cc(Br)cc(Br)c2O)ccc1O | 35.5 µM | > 100 µM | > 100 µM | 53.3 µM | 93.3 µM | > 100 µM | 46.4 µM | 50.8 µM | 83.8 µM | 57.8 µM | 59 µM | 70.9 µM | > 100 µM | 65.8 µM | > 100 µM | 40.6 µM | 67.8 µM | 75.2 µM | 72.4 µM | 30.6 µM
CC(=O)[C@@H](C)C(=O)N1C(=O)OC[C@@]12[C@@H]1CC[C@@H](C1)C2(C)C | > 100 µM | > 100 µM | > 100 µM | > 100 µM | > 100 µM | > 100 µM | > 100 µM | > 100 µM | > 100 µM | > 100 µM | > 100 µM | > 100 µM | > 100 µM | > 100 µM | > 100 µM | > 100 µM | > 100 µM | > 100 µM | > 100 µM | > 100 µM
COC(=O)c1cc2c(cc1CC(Cc1ccc3c(c1)CCCC3)C(=O)OC)CCCC2 (centres undefined) | > 100 µM | > 100 µM | > 100 µM | > 100 µM | > 100 µM | 93.8 µM | 29.7 µM | > 100 µM | > 100 µM | > 100 µM | > 100 µM | > 100 µM | > 100 µM | > 100 µM | 91.4 µM | > 100 µM | > 100 µM | > 100 µM | > 100 µM | > 100 µM
Cc1ccc(S(=O)(=O)N/N=C2/CCCOC2)cc1 | > 100 µM | > 100 µM | > 100 µM | > 100 µM | > 100 µM | > 100 µM | > 100 µM | > 100 µM | > 100 µM | > 100 µM | > 100 µM | > 100 µM | > 100 µM | > 100 µM | > 100 µM | > 100 µM | > 100 µM | > 100 µM | > 100 µM | > 100 µM
O=C(N/N=C\C=C\c1ccc([N+](=O)[O-])o1)C(=O)N/N=C\C=C\c1ccc([N+](=O)[O-])o1 | > 100 µM | > 100 µM | > 100 µM | > 100 µM | > 100 µM | > 100 µM | 87.1 µM | > 100 µM | > 100 µM | > 100 µM | > 100 µM | > 100 µM | > 100 µM | > 100 µM | > 100 µM | > 100 µM | > 100 µM | > 100 µM | > 100 µM | > 100 µM
COc1cc2cc3c4cc(OC)c(OC)cc4cc[n+]3c(C)c2cc1OC (tested in a mixture with another compound) | > 100 µM | > 100 µM | > 100 µM | > 100 µM | > 100 µM | > 100 µM | > 100 µM | > 100 µM | > 100 µM | > 100 µM | > 100 µM | > 45.6 µM | > 100 µM | > 100 µM | > 100 µM | > 100 µM | > 100 µM | > 55.5 µM | > 100 µM | > 100 µM
NNC(=S)N/N=C(/C(=O)Nc1ccc(Cl)c(Cl)c1)C(C1OC(=O)c2ccccc21)[N+](=O)[O-] (centres undefined) | > 100 µM | > 100 µM | > 100 µM | > 100 µM | > 100 µM | > 100 µM | > 100 µM | > 100 µM | > 100 µM | > 100 µM | > 100 µM | > 100 µM | > 100 µM | > 100 µM | > 100 µM | > 100 µM | > 100 µM | > 100 µM | > 100 µM | > 100 µM
CCOC(=O)Cc1nc2cc(F)c(F)cc2[nH]c1=O | > 100 µM | > 100 µM | > 100 µM | > 100 µM | > 100 µM | > 100 µM | > 100 µM | > 100 µM | > 100 µM | > 100 µM | > 100 µM | > 100 µM | > 100 µM | > 100 µM | > 100 µM | > 100 µM | > 100 µM | > 100 µM | > 100 µM | > 100 µM
O=C(NCP(=O)(c1ccccc1)c1ccccc1)OCc1ccccc1 | > 100 µM | > 100 µM | > 100 µM | > 100 µM | > 100 µM | > 100 µM | > 100 µM | > 100 µM | > 100 µM | > 100 µM | > 100 µM | > 100 µM | > 100 µM | > 100 µM | > 100 µM | > 100 µM | > 100 µM | – | > 100 µM | > 100 µM
